In ChEMBL document CHEMBL3507680, “University of Dundee, Gates Library screen for HepG2 cell viability”:

Test: Human HepG2 cell viability assay in 384 well format
Assay type: toxicity, cell-based
Design: dose 125 nL, time 70.5 hour; cytotoxicity at 70.5 h: concentration not given beside the values
Settings: HepG2 cells, read-out: Inhibition

| Structure (SMILES) | cytotoxicity at 70.5 h [%] |
| --- | --- |
| CC(O)(CNc1ccc(Cl)c(C#N)n1)c1ccsc1 (stereo unspecified) | 10.6 |
| COc1cc(CN(C)Cc2ccncc2)c(SC)cc1OC | -10.7 |
| O=C(c1cc2c(s1)CCC2)N1CCCC1c1noc(C2CC2)n1 (stereo unspecified) | -0.753 |
| CC(=O)N1C[C@H]2CNC[C@@]2(C(=O)NCCOc2ccccc2F)C1 | 0.818 |
| COc1ccccc1NCc1cscn1 | -1.66 |
| CCOC(=O)N1CCNC(c2cccs2)C1 (stereo unspecified) | 21.8 |
| O=C(C1=CCCCC1)N1CCO[C@H]2[C@H](Oc3ccccn3)CC[C@@H]21 | -9.07 |
| Cc1ccccc1N1CC2(CCN(S(=O)(=O)C3CC3)C2)CC1=O (stereo unspecified) | -14.8 |
| Cc1nc(N2CCC(CN3CCCC3)CC2)c2cnn(C)c2n1 | -2.49 |
| O=C(CCNC(=O)C1CCCC1)NCc1ccccc1Cn1ccnc1 | -8.37 |
| CCN(Cc1nc2c(cnn2C)c(=O)[nH]1)Cc1cccs1 | -7.33 |
| COc1ccc2c(c1)CCCN(C(=O)NCC1CCCO1)C2 (stereo unspecified) | -8.68 |
| O=C(c1nc2c(s1)CCCN2C(=O)C1CC1)N1CCOCC1 | -6.48 |
| Cc1ccc(-c2ccc(C3CNCCO3)nc2)cc1 (stereo unspecified) | -2.39 |
| Cn1ncc2c(N3CCC3)nc(-c3ccncc3)nc21 | 4.72 |
| CC(C)(C)OC(=O)N1CCC[C@H](NCC2CCOCC2)C1 | -0.369 |
| CC(=O)N1CCN(c2cc(N(C)C)cnn2)CC1 | -3.71 |
| CSc1ncccc1C(=O)N1C[C@H]2CC[C@@H]1CN(c1cnccn1)C2 | -10.6 |
| COc1ccc(C)cc1NC(=O)Nc1cnc(N2CCCC2)nc1 | 1.09 |
| CNC(=O)c1ccc(-c2ccc(CNC(=O)COC)cc2)nc1C | -10.8 |
| CC(C)CS(=O)(=O)CC(=O)NC(C)(C)c1cccc(F)c1 | 6.38 |

| Structure (SMILES) | cytotoxicity at 70.5 h [%] |
| --- | --- |
| O=C(COc1ccc(F)cc1F)N1CCOCC(O)(CN2CCCC2)C1 (stereo unspecified) | -2.46 |
| O=C(Nc1ccccc1)c1ccc(NCc2nccs2)nn1 | -10 |
| O=C(NCc1cnn2cccnc12)C1CC2(CCNCC2)CN1 (stereo unspecified) | -4.05 |
| CCS(=O)(=O)N1CCC(c2nccn2Cc2ccncc2)CC1 | -1.9 |
| CC(C)n1cnnc1CN(C)Cc1ccoc1 | -2.84 |
| CC(C)c1cc(C(=O)N2CCN(c3ccc(F)c(Cl)c3)CC2)n(C)n1 | -4.92 |
| CCc1cnc(CN2CCC(N(C)Cc3noc(C)n3)C2)o1 (stereo unspecified) | 17 |
| COc1ccc(N2CCC(N(C)C(=O)Nc3ccncc3)CC2)cc1 | 0.31 |
| CC[C@@]1(O)CCN(C(=O)c2ccc(OC(F)F)cc2)C[C@H]1O | -4.22 |
| Cc1cc(CN2CCN(C(=O)Nc3cccnc3)CC2)on1 | -7.67 |
| CC(=O)NCCCC(=O)N1CCc2[nH]c(-c3ccccc3)nc2C1 | -5.92 |
| CC1CCN(CCCNC(=O)NC(C)c2nncn2C)CC1 (stereo unspecified) | -3.78 |
| COc1ccc(-c2cc(C3CCN(C(C)=O)CC3)ccn2)cc1 | -7.99 |
| CCc1cc(CN(C)C(=O)CN2CC(Cc3ccccc3)CC2=O)on1 (stereo unspecified) | 2.31 |
| COc1cccc(SCC(=O)N2CCCC(N3CCCC3=O)C2)c1 (stereo unspecified) | -1.58 |
| CN(C)CCN(C)c1nc(CCc2ccccc2)nc2c1cnn2C | -1.09 |
| O=C1CCC(C(=O)Nc2ccc(=O)n(Cc3ccccc3Cl)c2)N1 (stereo unspecified) | -4.13 |
| O=S(=O)(Cc1ccccc1)NCc1ccnc(O)c1 | 0.635 |
| CCc1ccc(CN2CCc3ncnc(-c4cccnc4)c3CC2)o1 | -6.08 |
| COCCN(Cc1ccc(F)cc1Cl)C(=O)c1cc[n+]([O-])cc1 | 17.1 |
| c1ccc(CN2CCOCC3(CCN(C4CCOCC4)C3)C2)cc1 (stereo unspecified) | -2.29 |

| Structure (SMILES) | cytotoxicity at 70.5 h [%] |
| --- | --- |
| CCN1CC(Oc2ccc(Cl)cc2)=NC(SCC(=O)c2ccccc2)=N1 | 12.1 |
| CCc1cnc(NC(=O)NC2CCN(C)CC2)s1 | 10.3 |
| O=C(NCCc1nc(-c2ccccn2)no1)c1ccc(C2CCCO2)s1 (stereo unspecified) | -5.15 |
| COc1cc(N2C[C@H]3CCN(CCN4CCCC4)C[C@H]3C2)ncn1 | -1.14 |
| CCCNC(=O)COc1cc(C)c2c(C)nn(-c3ccccc3)c2n1 | -4.53 |
| O=C(c1ccccc1)N1CCN(CC2CCOc3ccccc3C2)CC1 (stereo unspecified) | -2.76 |
| CN(C)C(=O)c1nnc2ccc(N3CCOCC3)cc2n1 | -2.48 |
| CCn1ccnc1CN1CCN(CC(=O)NC(=O)NC2CC2)CC1 | -8.53 |
| Nc1nc(C2CCN(C(=O)c3cscn3)CC2)cs1 | -18.4 |
| c1ccc(Cc2noc(CN3CCc4c(ncn4C4CC4)C3)n2)cc1 | 11.8 |
| CCn1nc(C)c2ncnc(NCCCN3CCOCC3)c21 | 6.44 |
| CCc1nc(CN2CCOC(CN(C)c3cccnn3)C2)cs1 (stereo unspecified) | -7.04 |
| CN(C)CC(=O)N1CC[C@H]2OCC[C@@]2(COCC2CC2)C1 | -11.9 |
| CCNc1nc(-c2cccnc2)c(-c2ccnc(NS(C)(=O)=O)n2)s1 | -8.33 |
| CCCc1noc(CN2CCC(NC(=O)c3ccc(C)s3)CC2)n1 | -4.33 |
| CC(c1cc(F)ccc1F)N1CCN(Cc2nccn2C)CC1 (stereo unspecified) | 2.5 |
| CN(Cc1ccccc1)CC1(O)CCCN(Cc2ccc(F)cc2)C1=O (stereo unspecified) | -3.64 |
| O=C(O)C1(Cc2cc(-c3ccc(F)cc3F)no2)CCOCC1 | 20.5 |
| CC(C)S(=O)(=O)N1C[C@H]2OC(=O)N(CCc3cccc(Cl)c3)[C@H]2C1 | -4.98 |
| CN1CC2(CCCCN2C(=O)c2ccsc2)CC1=O (stereo unspecified) | 5.12 |
| CCc1ccc(C(=O)N2CCN(c3nc(C)cc(OC)n3)CC2)o1 | 4.76 |

| Structure (SMILES) | cytotoxicity at 70.5 h [%] |
| --- | --- |
| CN(C)CCN1CC2(CCC1=O)CCN(C(=O)c1ccn(C)n1)CC2 | -2.52 |
| COCCN1C(=O)[C@]2(CC[C@@H]3CN(S(=O)(=O)CC(C)C)C[C@@H]32)N=C1C | 13.1 |
| CCN(CC1CN(CC2CCC2)CCO1)c1cccnn1 (stereo unspecified) | -6.19 |
| CC(NC(=O)CCc1cccs1)c1nnc2n1CCCCC2 (stereo unspecified) | 8.51 |
| CCn1cc(CNc2ccc(F)c(N3CCCS3(=O)=O)c2)cn1 | 0.531 |
| N#Cc1cccc(C(=O)N2C[C@H](CO)C[C@H](CN3CCCC3)C2)c1 | 2.99 |
| CCN(CC)C(=O)[C@@H]1C[C@@H](N)CN1c1nc(N(C)C)nc(C)c1C | 2.56 |
| NS(=O)(=O)c1ccc(NC(=O)CSc2ccc3c(c2)CCC3)cc1 | -2.39 |
| Cc1ccc(NC(=O)[C@H]2C[C@H](C(=O)O)CN(CC(C)C)C2)cn1 | -11.2 |
| CCc1[nH]ncc1C(=O)N1CCCN(Cc2cnn(C(C)C)c2)CC1 | 6.52 |
| CC(C)c1nc(C2CCCN(c3nccc(N4CCCC4)n3)C2)no1 (stereo unspecified) | -2.95 |
| CN(C)CCCn1ccnc1C1CCN(C(=O)Cc2cccnc2)CC1 | 9.19 |
| CN(C)CCN(C)C(=O)NC1CCC(Oc2ccccc2C#N)CC1 (stereo unspecified) | -4.89 |
| O=C(NCCc1nnc2n1CCCCC2)N1CCC2(CCOC2)C1 (stereo unspecified) | -5.08 |
| O=C(CCc1nnc(-c2ccsc2)o1)NCC1CCN(C2CC2)C1 (stereo unspecified) | -4.06 |
| COC1CCN(C(=O)Cc2csc(-c3ccc(F)cc3)n2)CC1 | 0.103 |
| Cn1cc(N2CCC3(CCN(Cc4nccs4)C3)C2=O)cn1 (stereo unspecified) | -12.1 |
| CN(CC(=O)N1CCCCC1c1nccs1)C1CC1 (stereo unspecified) | 28.5 |
